Measured values as given in patent USRE48253E1, “Methotrexate adjuvants to reduce toxicity and methods for using the same” (Tosk, Inc., priority 2008, dated 2020).

What was measured:
C57Bl/6 female mice = assay: Mouse Study II: MTX-induced loss of mucosal permeability (plasma iodixanol); format: in vivo; conditions: day 7
Experimental: C57Bl/6 female mice (n=7) were treated intraperitoneal (ip) with 100 mg/kg MTX on days 2, 3 and 4 with and without 60 mg/kg TK-112690 (ip) three hours before, and after, MTX injections. On day 7, mucosal barrier injury was estimated by measuring plasma concentrations of orally administered iodixanol determined by HPLC using UV detection (Boxplots with minimum and maximum values (black lines). Orally administered iodixanol is not absorbed absent an increase in mucosal permeability. Group 1=saline control, Group 2=MTX and Group 3=MTX+TK-112690.
The aim of this study was to evaluate the ability of a representative a 2,2′-anhydropyrimidine test article to mitigate MTX-induced loss of mucosal permeability. C57Bl/6 female mice (n=7) were treated (ip) with 100 mg/kg MTX on days 2, 3 and 4 with and without 60 mg/kg TK-112690 (ip) three hours before, and after, MTX injections. On day 7, mucosal barrier injury was estimated by measuring plasma concentrations of orally administered iodixanol determined by HPLC using UV detection. Orally administered iodixanol is not absorbed absent an increase in mucosal permeability.

CCRF-CEM cells = assay: Cell Culture Study I: MTX cytotoxicity, alamarBlue; format: cell-based, human; conditions: 72 hours
Experimental: In this study, CCRF-CEM cells purchased from ATCC were cultured and then 12 tubes containing approximately 10^6 cells each treated for 72 hours with media (Group1), MTX 0.03 μM (Group2), MTX+Leucovorin 1 μM (Group3), MTX+Leucovorin 10 μM (Group4), MTX+Leucovorin 100 μM (Group5), MTX+TK-112690 1 μM (Group6), MTX+TK-112690 10 μM (Group7) and MTX+TK-112690 100 μM (Group8). […] Viability was measured as percent reduction of alamarBlue absorbance.
The tumor cell line CCR-CEM (human T-cell acute lymphoblastic leukemia) is obtained from American Type Culture Collection (CRL-1593.2) and cultured in accordance with the product information sheet with the following exceptions: 55.3 cm^2 Petri dishes are used instead of 75 cm^2 culture flasks, and 1% penicillin-streptomycin solution (HyClone SV30010) and 1% GlutaMAX™ (Gibco 35050) are added to the culture medium.
TK-112690, the representative 2,2′-anhydropyrimidine test article, is dissolved in 40% DMSO, sterile filtered then diluted with sterile distilled water to obtain initial working solutions of 10, 100 and 1000 μM. In testing, a 100 fold dilution is made in culture media to give final assay concentrations of 0.1, 1.0 and 10.0 μM. MTX (SAFC Biosciences M8407) is dissolved in sterile distilled water and 5 N NaOH then sterile filtered. The final pH of the stock solution is 7.8 and working solutions are made with sterile distilled water for final assay concentrations of 30, 3.0, 0.3, 0.03 and 0.003 μM. Leucovorin (Sigma F-7878) is dissolved in sterile distilled water, sterile filtered and diluted with sterile distilled water for final assay concentrations of 0.1, 1.0 and 10.0 μM.
Aliquots of 100 μL of cell suspension are plated in 96 well microtiter plates (Corning costar 3595) and placed in an atmosphere of 5% CO2 at 37° C. (Fisher Scientific Isotemp 3500 CO2 Incubator). After 24 hours, 100 μL of growth medium [RPMI-1640 w/L-glutamine (Cambrex 12-702Q) fortified with sodium pyruvate (HyClone SH30239.01), fetal bovine serum (SAFC Biosciences 12107C) and HEPES buffer (Gibco 15630)] and 2 μL of test solution or vehicle are added respectively per well and the plates incubated for an additional 72 hour incubation. MTX is evaluated at concentrations of 0.003, 0.03, 0.30 and 3.0 μM alone or in combination with either a 2,2′-anhydropyrimidine test article or Leucovorin at concentrations of 0.1, 1.0, 10.0 μM. At the end of incubation, the efficacy of anti-cell proliferation is determined by optical absorbance at λ=570 and 600 nm [Spectramax 250 (Molecular Devices)] in accordance with the standard alamarBlue™ (Biosource) protocol.
Group 1 is the cell control (media treated). Group 2 corresponds to cells treated with 0.03 μM MTX. Group 3 are cells treated with 1.0 μM Leucovorin. Group 4 are cells treated with 0.1 μM Leucovorin. Group 5 are cells treated with 10 μM TK-112690. Group 6 are cells treated with MTX+10 μM TK-112690. Group 7 are cells treated with MTX+1.0 μM TK-112690. Group 8 MTX+0.1 μM TK-112690.

[1] = tested on: Wild-type (Oregon-R) Drosophila melanogaster; assay: Fly Study II: MTX lethality in wild-type flies; format: in vivo; conditions: for MTX dose with lethal effects in wild-type flies: orally in food admix, scored 15 days after initiation
Experimental: Embryos of UPase knockout (19519) Drosophila melanogaster were orally exposed to a dose range of MTX doses in food admix. Embryos of Wild-type (Oregon-R) were orally exposed to the same dose range of MTX in presence and absence of 0.04 mg TK-112690. Scoring was based on life or death 15 days after initiation of MTX exposure. […] Wild-type D. melanogaster are sensitive to lethal effects of ≥0.1 mg MTX.
The aim of this study was to evaluate the lethal effects of a range (0.001, 0.01, 0.05, 0.1, 0.2, 0.4 mg) of doses of orally fed MTX in wild-type (Ore-R) and UPase mutant Drosophila melanogaster. Embryos of UPase knockout (19519) Drosophila melanogaster were orally exposed to a dose range of MTX (0.001, 0.01, 0.05, 0.1, 0.2, 0.4 mg) in food admix. Embryos of Wild-type (Oregon-R) were orally exposed to the same dose range of MTX in presence and absence of 0.04 mg TK-112690. Scoring was based on life or death 15 days after initiation of MTX exposure.

| SMILES | mucosal barrier injury (plasma concentration of orally administered iodixanol) (C57Bl/6 female mice; 100 mg/kg MTX ip on Days 2, 3 and 4) | viability, MTX alone vs cell control (CCRF-CEM cells; MTX 0.03 μM) | MTX dose with lethal effects in wild-type flies [1] [mg] | MTX dose with lethal effects in wild-type flies ([1]; listed as Methotrexate) [mg] | protection from MTX-induced mucosal barrier injury (plasma concentration of orally administered iodixanol) (C57Bl/6 female mice; 60 mg/kg ip three hours before and after MTX 100 mg/kg, days 2, 3, 4) | effect on MTX cytotoxicity (viability, alamarBlue) (CCRF-CEM cells; combined with MTX 0.03 μM) | viability, agent alone vs control (CCRF-CEM cells; without MTX) | methotrexate dose from whose lethality protection is provided ([1]; 0.04 mg TK-112690) [mg] | protection of wild-type flies from lethal effects of MTX ([1]; 0.04 mg TK-112690, MTX 0.001-0.4 mg) |
| --- | --- | --- | --- | --- | --- | --- | --- | --- | --- |
| CN(Cc1cnc2nc(N)nc(N)c2n1)c1ccc(C(=O)N[C@@H](CCC(=O)O)C(=O)O)cc1 [MTX, N-[4-[[(2,4-diamino-6-pteridinyl)methyl]methylamino]benzoyl]-L-glutamic acid, reference compound] | experienced mucosal barrier injury | statistically significantly different from Group1 | ≥ 0.1 | 0.1 | – | – | – | – | – |
| Cc1cn2c(nc1=O)O[C@H]1[C@H](O)[C@@H](CO)O[C@H]12 [TK-112690, 2,2′-anhydro-5-methyluridine] | – | – | – | – | protected mice from MTX-induced mucosal barrier injury | do not interfere with methotrexate cytotoxicity | not statistically different than control | ≤ 0.4 | resistant to the lethal effects |
